Data published in publication PMC9481570, “A small molecule antagonist of SMN disrupts the interaction between SMN and RNAP II” (Nature Communications, 2022).

Columns and labels:
[1] = biological target: T1, WDR5 (WD40) (Homo sapiens, UniProt P61964); assay: ITC binding to WD40 repeats of WDR5; settings: Fig. 1c
T1 construct: WDR5 (aa 24–334); His (N, cleaved yes); made in house; host or cells: E. coli BL21 (DE3) Codon plus RIL
Description: (§1) The coding DNA fragments of following Tudor domains were cloned into pET28-MHL vector: SMN (aa 82–147), UHRF1 (aa 126–285), SMNDC1 (aa 53–130), TDRD3 (aa 554–611), SND1 (aa 650–910), TDRD2 (aa 327–420), FXR1 (aa 2–132), PHF1 (aa 28–87), SGF29 (aa 115–293), JMJD2A (aa 897–1101), 53BP1 (aa 1483–1606), SETDB1 (aa 190–410), LBR (aa 1–67), ZGPAT (aa 120–271). The coding regions of chromodomain of CBX7 (aa 8–62), PWWP domain of DNMT3A (aa 275–417), WD40 repeats of WDR5 (aa 24–334) and CW domain of ZCWPW2 (aa 21–78) were also subcloned into pET28-MHL vector to generate N-terminally His-tagged fusion protein. The MBT repeats of L3MBTL1 (aa 200–522) and L3MBTL2 (aa 170–625) were subcloned into pET28GST-LIC vector to generate N-terminally GST-His-tagged fusion protein. All the plasmids were generated by ligase independent cloning (Vazyme Biotech, C112 or ABclonal Technology, RK21020). […] The molecular weight of all protein samples was measured by mass spectrometry.
(§2) For the ITC measurement, the concentrated proteins were diluted into 20 mM Tris-HCl, pH 7.5, 150 mM NaCl (ITC buffer); the lyophilized compounds were dissolved in the same buffer, and the pH value was adjusted by adding 2 M NaOH or 2 M HCl. […] Compound concentrations were calculated from the mass and the volume of the solvent. […]

[2] = biological target: T2, SMN_Y130A (Homo sapiens, UniProt Q16637, Y130A); assay: ITC binding to SMN Tudor mutant Y130A; settings: Fig. 3d
T2 construct: cloned into pET28-MHL vector: SMN (aa 82–147); His (N, cleaved yes); made in house; host or cells: E. coli BL21 (DE3) Codon plus RIL
Description: as §1, §2

[3] = biological target: T3, L3MBTL1 (MBT) (Homo sapiens, UniProt Q9Y468); assay: ITC binding to MBT repeats of L3MBTL1
T3 construct: L3MBTL1 (aa 200–522); GST-His (N, cleaved yes); made in house; host or cells: E. coli BL21 (DE3) Codon plus RIL
Description: as §1, §2

[4] = biological target: T4, PHF1 (Homo sapiens, UniProt O43189); assay: ITC binding to PHF1; settings: Fig. 1c
T4 construct: PHF1 (aa 28–87); His (N, cleaved yes); made in house; host or cells: E. coli BL21 (DE3) Codon plus RIL
Description: as §1, §2

[5] = biological target: T5, TDRD3_Y566W (Homo sapiens, UniProt Q9H7E2, Y566W); assay: ITC binding to TDRD3 mutant Y566W; settings: Supplementary Fig. 11b, iTC-200; read-out: Kd, ITC binding curve, TDRD3_Y566W
T5 construct: TDRD3 (aa 554–611); His (N, cleaved yes); made in house; host or cells: E. coli BL21 (DE3) Codon plus RIL
Description: as §1, §2

[6] = biological target: T6, SMNDC1 (Homo sapiens, UniProt O75940); assay: ITC binding to SMNDC1; settings: Supplementary Fig. 2; read-out: Kd, ITC binding curve, SMNDC1
T6 construct: SMNDC1 (aa 53–130); His (N, cleaved yes); made in house; host or cells: E. coli BL21 (DE3) Codon plus RIL
Description: as §1, §2

T3 sequence (Q9Y468 268-590): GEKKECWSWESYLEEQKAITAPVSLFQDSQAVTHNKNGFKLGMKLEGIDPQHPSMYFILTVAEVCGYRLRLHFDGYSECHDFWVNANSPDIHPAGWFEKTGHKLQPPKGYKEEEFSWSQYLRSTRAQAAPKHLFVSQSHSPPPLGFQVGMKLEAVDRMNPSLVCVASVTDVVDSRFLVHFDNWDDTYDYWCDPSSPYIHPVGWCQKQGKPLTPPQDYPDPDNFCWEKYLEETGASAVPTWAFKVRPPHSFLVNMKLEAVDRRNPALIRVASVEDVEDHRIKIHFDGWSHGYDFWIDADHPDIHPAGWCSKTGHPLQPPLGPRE
T4 sequence (O43189 28-87): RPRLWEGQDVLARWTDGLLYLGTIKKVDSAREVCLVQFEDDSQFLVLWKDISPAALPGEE
T2 sequence (Q16637 82-147 Y130A): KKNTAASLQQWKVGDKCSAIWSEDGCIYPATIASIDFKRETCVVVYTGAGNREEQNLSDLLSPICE
T5 sequence (Q9H7E2 554-611 Y566W): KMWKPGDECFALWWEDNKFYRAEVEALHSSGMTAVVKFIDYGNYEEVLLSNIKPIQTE
T6 sequence (O75940 53-130): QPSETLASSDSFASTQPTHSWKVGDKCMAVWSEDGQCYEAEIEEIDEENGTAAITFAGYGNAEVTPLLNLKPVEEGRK

`Cn1c2c(c(=N)c3c1CCC3)CCC2` [Compound 1, 4-methyl-2,3,4,5,6,7-hexahydrodicyclopenta[b,e]pyridin-8(1H)-imine] was tested, and the Kd [1] was > 244 µM, the Kd [2] was > 244 µM and the Kd ([3]; ITC, Fig. 1c) was > 100 µM. The “ITC binding curve, MBT repeats of L3MBTL1 (in words)” value ([3]; Supplementary Fig. 2f) was “Weak binding”, the Kd [4] was > 244 µM and the Kd [5] was 3.8 ± 0.4 µM. For the same molecule, the Kd [6] was 2.8 ± 0.2 µM.
